Values quoted from earlier work as cited in US20100227830A1, “USE OF ESCIN” (MARINOMED BIOTECHNOLOGIE GMBH, priority 2006, published 2010).

Tested on: nuclear factor-KB (NF-κB)
Details: after traumatic brain injury in rats

β-escin
NF-κB expression level in tissue: significant reduction of NF-κB expression level
